Experimental findings from patent US6251900A, “Heterocyclic compounds and antitumor agent containing the same as active ingredient” (Zenyaku Kogyo Kabushiki Kaisha, priority 1997, dated 2001) are described below.

A value given as a limit tells only on which side of the number the result lay.

The test system of one data set is MCF-7 cells. As to the kind of experiment: Growth inhibition of MCF-7 human breast cancer cells, 72 h culture (Test 1). It counts as cell-based. To be noted: MCF7, 37° C., read-out: 50% Growth inhibition concentrations (GI50). The procedure: Used in the test were MCF-7 cells which were established from human breast cancer and were cultured routinely under the conditions of 37° C. and 5% CO2, in RPMI 1640 medium supplemented with 10% fetal calf serum, HEPES buffer solution (25 mM) and kanamycin (0.1 mg/ml). Single cell suspension was prepared by adding trypsin/EDTA to the medium so as to be adjusted to 4.0×10^4 cells/ml. Test compounds were dissolved or suspended in DMSO or RPMI 1640 medium at a concentration of 1.0×10^-4 -1.0×10^-9 M.
The cell suspension and the sample solution or suspension were filled in a 96-wells microplate at a rate of 0.1 ml of the former and 0.1 ml of the latter per well and cultured at 37° C. for 72 hours in 5% CO2.
50% Growth inhibition concentrations (GI50 μM) were calculated from growth inhibitions at various sample concentrations.

Data set [1] in a line: Acute toxicity in BDF1 male mice (Test 3). Conditions: mouse, in vivo, po, orally or abdominally administered, observation for 14 days. The procedure:
The acute toxicity was determined by orally or abdominally administrating the compound 9 or 22 of the present invention, which was adjusted by distilled water added with 1% of hydroxypropyl cellulose, to BDF1 male mice (6-weeks-old, having a body weight of 25±2.5 g) and LD50 was obtained over observation for 14 days. As a result, it was found out that LD50 of any of the compounds was 400-800 mg/kg.

Data set [2] concerns M5076 mouse reticulum cell sarcoma cells. As to the kind of experiment: Tumor growth inhibition, M5076 mouse reticulum cell sarcoma transplanted subcutaneously in BDF1 mice (Test 2). To be noted: abdominally administered for 9 days, tumor weight on day 21. Format: in vivo. The procedure:
The treated group to which the test sample was administered consisted of seven mice while the control group consisted of ten mice. Six weeks old male mice (BDF1, 25±2.5 g) were employed as host animals.
M5076 mouse reticulum cell sarcoma cells routinely cultured in abdominal of C57BL/6 male mice were diluted with cold Hanks solution and 1.0×10^6 cells of them were transplanted subcutaneously into left breast of each mouse. The samples prepared by suspending test compounds in 1% hydroxypropyl cellulose (HPC) were abdominally administered for 9 days after the day after the transplantation. After 21 days passed from the transplantation of the tumor, the mice were killed and the tumors were extracted out to measure the tumor weights of the respective groups.
Effect of sample was calculated as tumor growth inhibition by the following formula:
Tumor Growth Inhibition (%)=(1-T/C)×100
T: tumor weight of group with sample administered
C: tumor weight of control group

With `C[C@@H]1OCCN(c2nc(N3CCOCC3)nc(-n3cnc4ccccc43)n2)[C@H]1C` (relative stereo) [compound 9, 2-(benzimidazol-1-yl)-4-(trans-2,3-dimethylmorpholino)-6-morpholino-1,3,5-triazine], in the data set on MCF-7 cells, the GI50 worked out at 1200 nM. Besides, the LD50 at 336 h in data set [1] was in the range of 400 to 800 mg/kg. Further, the “Tumor Growth Inhibition (%)” value in data set [2] (200 mg/kg) is on record as 98.6%.

For `C[C@@H]1OCCN(c2cc(N3CCOCC3)nc(-n3cnc4ccccc43)n2)[C@H]1C` (relative stereo) [compound 22, 2-(benzimidazol-1-yl)-4-(trans-2,3-dimethylmorpholino)-6-morpholinopyrimidine], the GI50 in the data set on MCF-7 cells was 2200 nM. Moreover, in data set [1], the LD50 at 336 h was in the range of 400 to 800 mg/kg. Further, the “Tumor Growth Inhibition (%)” value in data set [2] (100 mg/kg) is reported as 83.8%.

For the compound `CN(C)c1nc(N(C)C)nc(N(C)C)n1` [compound B, hexamethylmelamine, reference compound], the GI50 with MCF-7 cells was more than 100000 nM. In addition, in data set [2] (100 mg/kg), the “Tumor Growth Inhibition (%)” value came to 38.8%.

For orientation: LD50 means the dose at which mortality reaches 50%. A lower LD50 goes with a more toxic substance.
